Series [1] addresses T1, γ-secretase (Homo sapiens, UniProt P49768).
T1 construct: endogenous in cells; host or cells: SKNBE2 human neuroblastoma cells (carrying hAPP 695 wild type as substrate)
The series is described as follows: Screening for γ-secretase-modulating activity: Aβtotal in supernatant of SKNBE2 cells carrying hAPP 695 wild type (Alphalisa). In kind it is cell-based. To be noted: SKNBE2 human neuroblastoma cells carrying hAPP 695 wild type, overnight incubation, Aβtotal in cell supernatant. The gist of the method:
(§1)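 SKNBE2 neuroblastoma cells expressing wild-type hAPP 695 plated at 10^4 cells/well in Ultraculture with test compound, incubated overnight at 37° C. Aβ42 (C-terminal/N-terminal antibody pair) and Aβtotal (N-terminal/4G8 pair) in supernatant quantified by AlphaLISA. IC50 from 4-parameter fit of percent of compound-free control.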

Series [2] has as its target T1, γ-secretase. In words: Screening for γ-secretase-modulating activity: Aβ42 in supernatant of SKNBE2 cells carrying hAPP 695 wild type (Alphalisa). The series is classed as cell-based. To be noted: SKNBE2 human neuroblastoma cells carrying hAPP 695 wild type, overnight incubation, Aβ42 in cell supernatant. The gist of the method: as §1

Counter-ions that a name gives are not always drawn.

`Cc1ncn(-c2ccc3n(c2=O)CCN(Cc2cccc(C(F)(F)F)c2)C3=O)n1` [compound 120] yielded a melting point of 194.9 °C. The molecule further returned an IC50 at γ-secretase [1] above 10000 nM. This molecule also showed an IC50 against γ-secretase [2] of 6170 nM. The molecule `Cc1cn(-c2ccc3n(c2=O)C[C@@H](C)N(Cc2cc(N4CCC(C(F)(F)F)CC4)ccc2Cl)C3=O)cn1` (as salt: HCl) [compound 81] gave a melting point of 160.6 °C.

As to `Cc1cn(-c2ccc3n(c2=O)CCCN(Cc2ccc(Cl)c(Cl)c2)C3=O)cn1` [compound 121], the melting point turned out to be 173.4 °C. Moreover, the IC50 against γ-secretase [1] is above 10000 nM. Half-maximal inhibition at γ-secretase [2] (IC50) required 380 nM. On the same counts, the results for `Cc1cn(-c2ccc3n(c2=O)CCN(C(C)Cc2cc(C(F)(F)F)cc(C(F)(F)F)c2)C3=O)cn1` (stereo not drawn) [compound 172] are 182.3 °C, above 10000 nM and 250 nM.

As to `Cc1cn(-c2ccc3n(c2=O)C[C@@H](C)N(CC2(c4ccc(Cl)cc4)CC2)C3=O)cn1` [compound 28], the melting point worked out at 157.4 °C. Besides, the 50% inhibitory concentration (IC50) at γ-secretase [1] is above 10000 nM. Moreover, the IC50 at γ-secretase [2] is 280 nM. `COc1cc(CN2C(=O)c3ccc(-n4cnc(C)c4)c(=O)n3C[C@H]2C)cc(C(F)(F)F)c1` [compound 68] displayed a melting point of 132.4 °C. The molecule also gave an IC50 against γ-secretase [1] above 10000 nM. At γ-secretase [2], this molecule gave a half-maximal inhibitory concentration (IC50) of 190 nM. The corresponding values for `Cc1cn(-c2ccc3n(c2=O)CCN(CCc2ccc(Cl)cc2)C3=O)cn1` [compound 26] are 184.4 °C, above 10000 nM and 1660 nM. In turn, `Cc1cn(-c2ccc3n(c2=O)CCN(Cc2cccc(Cl)c2)C3=O)cn1` [compound 25] returned a melting point of 176.7 °C. Moreover, the IC50 at γ-secretase [1] is above 10000 nM. For the same molecule, at γ-secretase [2], the IC50 is 1700 nM.

With `Cc1cn(-c2ccc3n(c2=O)C[C@@H](C)N(Cc2cccc(Cl)c2)C3=O)cn1` (as salt: HCl) [compound 24], the melting point was 184.6 °C.

Regarding `Cc1cn(-c2ccc3n(c2=O)C[C@@H](C)N(Cc2ccc(C)c(-n4cccn4)c2)C3=O)cn1` (as salt: HCl) [compound 114], the melting point stood at 126.9 °C.

The molecule `Cc1cn(-c2ccc3n(c2=O)CCN(C2CCc4c2cccc4C(F)(F)F)C3=O)cn1` (stereo not drawn) [compound 105] gave a melting point of 253.5 °C. For the same molecule, at γ-secretase [1], the IC50 was above 10000 nM. The IC50 at γ-secretase [2] was found to be 2820 nM. Consider `Cc1cn(-c2ccc3n(c2=O)C[C@@H](C)N(Cc2cc(C(F)(F)F)ccc2C)C3=O)cn1` (as salt: HCl) [compound 72], for which the melting point was found to be 208.3 °C. In turn, `Cc1cn(-c2ccc3n(c2=O)CCN(Cc2cccc(C4CC4)c2)C3=O)cn1` [compound 101] came in with a melting point of 121.5 °C. Further, the IC50 at γ-secretase [1] is above 10000 nM. In addition, the IC50 against γ-secretase [2] was found to be 740 nM. Turning to `Cc1cn(-c2ccc3n(c2=O)C[C@@H](C)N(Cc2cn(C)c4ccc(OC(F)(F)F)cc24)C3=O)cn1` (as salt: HCl) [compound 253], the melting point amounted to 190 °C. For the molecule `Cc1cn(-c2ccc3n(c2=O)CCN(c2cccc(C(F)(F)F)c2C)C3=O)cn1` [compound 57], the melting point stood at 248.6 °C. The molecule also showed an IC50 at γ-secretase [1] above 10000 nM. The same molecule showed an IC50 against γ-secretase [2] above 10000 nM.

`Cc1cn(-c2ccc3n(c2=O)C[C@@H](C)N(Cc2cc(N4CCC(C)CC4)ccc2Cl)C3=O)cn1` (as salt: HCl) [compound 80]: the melting point was found to be 235.1 °C.

Turning to `Cc1cn(-c2ccc3n(c2=O)C[C@@H](C)N(Cc2cc(CC(F)(F)F)cc(C(F)(F)F)c2)C3=O)cn1` (as salt: HCl) [compound 134], the melting point is 136 °C. With `CCOc1cc(C(C)N2C(=O)c3ccc(-n4cnc(C)c4)c(=O)n3C[C@H]2C)cc(C(F)(F)F)c1` (single isomer, unassigned) (as salt: HCl) [compound 143], the melting point was 229.3 °C. `Cc1cn(-c2ccc3n(c2=O)C[C@@H](C)N(Cc2ccc(C(F)(F)F)c(N4CCCCC4)c2)C3=O)cn1` (as salt: HCl) [compound 171]: the melting point stood at 130.6 °C. On the same count and under the same terms, the same measure for `Cc1cn(-c2ccc3n(c2=O)C[C@@H](C)N(Cc2cc(Br)cc(C(F)(F)F)c2)C3=O)cn1` (as salt: HCl) [compound 145]: 204.5 °C; for `CCC(c1cc(OC)cc(C(F)(F)F)c1)N1C(=O)c2ccc(-n3cnc(C)c3)c(=O)n2C[C@H]1C` (single isomer, unassigned) (as salt: HCl) [compound 142]: 141.4 °C. `Cc1cn(-c2ccc3n(c2=O)CCN(Cc2c[nH]c4c(Cl)cc(Cl)cc24)C3=O)cn1` [compound 260] showed a melting point of 208 °C. The same molecule registered an IC50 against γ-secretase [2] of 30 nM. In turn, `Cc1cn(-c2ccc3n(c2=O)C[C@@H](C)N(CCc2cccc(Cl)c2Cl)C3=O)cn1` (as salt: HCl) [compound 231] had a melting point of 218 °C. Regarding `CCC(c1cc(OC)cc(C(F)(F)F)c1)N1C(=O)c2ccc(-n3cnc(C)c3)c(=O)n2C[C@H]1C` (single isomer, unassigned) (as salt: HCl) [compound 141], the melting point was 146.2 °C. The molecule `CCOc1cc(C(C)N2C(=O)c3ccc(-n4cnc(C)c4)c(=O)n3C[C@H]2C)cc(C(F)(F)F)c1` (single isomer, unassigned) (as salt: HCl) [compound 144] displayed a melting point of 194.4 °C.

As to `Cc1cn(-c2ccc3n(c2=O)C[C@@H](C)N(Cc2cc(OC(C)C)c(Cl)cc2F)C3=O)cn1` (as salt: HCl) [compound 163], the melting point stood at 103.1 °C. Same read-out and setting: the same measure for `Cc1cn(-c2ccc3n(c2=O)C[C@@H](C)N(Cc2cc(F)cc(OC(F)(F)F)c2)C3=O)cn1` (as salt: HCl) [compound 139]: 195.9 °C; for `Cc1cn(-c2ccc3n(c2=O)C[C@@H](C)N(C(C)c2cccc(OC(F)(F)F)c2)C3=O)cn1` (single isomer, unassigned) (as salt: HCl) [compound 147]: 232.9 °C. On the same count and under the same terms, to `Cc1cn(-c2ccc3n(c2=O)C[C@@H](C)N(Cc2cc(OC(C)C)nc(C(F)(F)F)c2)C3=O)cn1` (as salt: HCl) [compound 128] belongs 116.9 °C.

As for `Cc1cn(-c2ccc3n(c2=O)C[C@@H](C)N(Cc2cc(OC(F)(F)F)cc(C(F)(F)F)c2)C3=O)cn1` (as salt: HCl) [compound 140], the melting point amounted to 115.2 °C. For the molecule `Cc1cn(-c2ccc3n(c2=O)C[C@@H](C)N(C(C)c2cc(CC4CC4)cc(C(F)(F)F)c2)C3=O)cn1` (single isomer, unassigned) (as salt: HCl) [compound 135], the melting point is 213.2 °C.

As for `Cc1cn(-c2ccc3n(c2=O)C[C@@H](C)N(Cc2cc(N4CCCCC4)cc(C(F)(F)F)c2)C3=O)cn1` (as salt: HCl) [compound 86], the melting point was 185.3 °C. Take `CCCc1nccn1-c1ccc2n(c1=O)CCN(CC1CC1)C2=O` [compound 17]: the IC50 against γ-secretase [1] and on γ-secretase [2] was above 10000 nM throughout. `COc1cc(C(C)N2C(=O)c3ccc(-n4cnc(C)c4)c(=O)n3C[C@H]2C)cc(C(F)(F)F)c1` (single isomer, unassigned) (as salt: HCl) [compound 149] gave a melting point of 122 °C.

Turning to `Cc1cn(-c2ccc3n(c2=O)C(C)C(C)N(Cc2cc(C(F)(F)F)cc(C(F)(F)F)c2)C3=O)cn1` (single isomer, unassigned) [14a], the IC50 against γ-secretase [1] was above 10000 nM; against γ-secretase [2], 1780 nM.

`CCn1cc(C(C)N2C(=O)c3ccc(-n4cnc(C)c4)c(=O)n3CC2C)c2cc(Cl)ccc21` (single isomer, unassigned) [compound 243]: the IC50 on γ-secretase [1] turned out to be 2000 nM; on γ-secretase [2], 10 nM. The corresponding values for `Cc1cn(-c2ccc3n(c2=O)C[C@@H](C)N(Cc2cc(C(F)(F)F)ccc2Cl)C3=O)cn1` [compound 71] are above 10000 nM and 280 nM.

Molecule `Cc1cn(-c2ccc3n(c2=O)C[C@@H](C)N(Cc2cc(OCC(F)(F)F)cc(C(F)(F)F)c2)C3=O)cn1` (as salt: HCl) [compound 166] had a melting point of 137.5 °C. Turning to `Cc1cn(-c2ccc3n(c2=O)C[C@@H](C)N(Cc2ccc(C(F)(F)F)c(N4CCCCC4)c2)C3=O)cn1` [compound 171], the IC50 on γ-secretase [1] was above 10000 nM; against γ-secretase [2], 40 nM. On the same counts, the results for `Cc1cn(-c2ccc3n(c2=O)C[C@@H](C)N(Cc2cc(Br)cc(OC(F)(F)F)c2)C3=O)cn1` [compound 152] are above 10000 nM and 70 nM.

As for `Cc1cn(-c2ccc3n(c2=O)C[C@@H](C)N(Cc2ccc(Cl)c(N4CCCCC4)c2)C3=O)cn1` [compound 85], the IC50 against γ-secretase [1] is above 10000 nM; against γ-secretase [2], 60 nM. The corresponding values for `Cc1cn(-c2ccc3n(c2=O)C[C@@H](C)N(Cc2cn(C)c4ccc(OC(F)(F)F)cc24)C3=O)cn1` [compound 253] are 5000 nM and 9 nM. On the same counts, the results for `Cc1cn(-c2ccc3n(c2=O)C[C@@H](C)N(Cc2cccc(C(F)(F)F)c2C)C3=O)cn1` [compound 61] are above 10000 nM and 480 nM. Turning to `Cc1cn(-c2ccc3n(c2=O)C[C@@H](C)N(Cc2cc(N4CCCC4)ccc2Cl)C3=O)cn1` (as salt: HCl) [compound 82], the melting point was determined as 233.6 °C. Take `Cc1cn(-c2ccc3n(c2=O)CCN(C(C)c2cc(Cl)cc(Cl)c2)C3=O)cn1` (single isomer, unassigned) [compound 209]: the IC50 against γ-secretase [1] was above 10000 nM; against γ-secretase [2] it was 380 nM. The corresponding values for `Cc1cn(-c2ccc3n(c2=O)C[C@@H](C)N(Cc2cn(C)c4cc(F)c(C(F)(F)F)cc24)C3=O)cn1` [compound 238] are 4000 nM and 9 nM.
